Experiments:
Assay type in all cases: in vivo
[1] = system: duck salad (Heteranthera limosa); assay: Test B flooded paddy test; settings: Flood, 1000 g ai/ha; scale 0 to 100
Outline: (§1)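 Plants were grown to the 2-leaf stage before treatment, then kept in a greenhouse for 13 to 15 days. Injury was rated visually against untreated controls on a 0 to 100 scale, where 0 is no effect and 100 is complete control.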

[2] = system: umbrella sedge (Cyperus difformis); assay: Test B flooded paddy test; settings: Flood, 1000 g ai/ha; scale 0 to 100
Outline: as §1

[3] = system: rice (Oryza sativa); assay: Test B flooded paddy test; settings: Flood, 1000 g ai/ha; scale 0 to 100
Outline: as §1

[4] = system: barnyardgrass (Echinochloa crus-galli); assay: Test B flooded paddy test; settings: Flood, 1000 g ai/ha; scale 0 (no effect) to 100 (complete control)
Outline: as §1

[5] = system: crabgrass (Digitaria sanguinalis); assay: Test B pre/postemergence
Outline: (§2)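 Greenhouse whole-plant test; surfactant-containing non-phytotoxic solvent formulation; pre- and postemergence applications made simultaneously; post plants 2–18 cm, 1- to 4-leaf; visual scoring at 13–15 days on 0–100 scale relative to controls.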

[6] = system: wheat (Triticum aestivum); assay: Test B pre/postemergence
Outline: as §2

[7] = system: morningglory (Ipomoea coccinea); assay: Test B pre/postemergence
Outline: as §2

[8] = system: lambsquarters (Chenopodium album); assay: Test B pre/postemergence
Outline: as §2

[9] = system: corn (Zea mays); assay: Test B pre/postemergence
Outline: as §2

[10] = system: Surinam grass (Brachiaria decumbens); assay: Test B pre/postemergence
Outline: as §2

[11] = system: cocklebur (Xanthium strumarium); assay: Test B pre/postemergence
Outline: as §2

[12] = system: pigweed (Amaranthus retroflexus); assay: Test B pre/postemergence
Outline: as §2

[13] = system: giant foxtail (Setaria faberii); assay: Test B pre/postemergence
Outline: as §2

[14] = system: barnyardgrass (Echinochloa crus-galli); assay: Test B pre/postemergence
Outline: as §2

[15] = system: velvetleaf (Abutilon theophrasti); assay: Test B pre/postemergence
Outline: as §2

[16] = system: blackgrass (Alopecurus myosuroides); assay: Test B postemergence; settings: for Blackgrass plant response rating: 125 g ai/ha, scale 0 to 100 (0 no effect, 100 complete control); for Plant response rating, Blackgrass: 500 g ai/ha, scale 0 to 100
Outline: as §2

[17] = system: wild oat (Avena fatua); assay: Test B postemergence; settings: for Oat, Wild plant response rating: 125 g ai/ha, scale 0 to 100 (0 no effect, 100 complete control); for Plant response rating, Oat, Wild: 500 g ai/ha, scale 0 to 100
Outline: as §2

[18] = Postemergence, 125 g ai/ha, scale 0 to 100 (0 no effect, 100 complete control)
[19] = Postemergence, 500 g ai/ha, scale 0 to 100
[20] = Preemergence, 125 g ai/ha, scale 0 to 100 (0 no effect, 100 complete control)
[21] = Preemergence, 500 g ai/ha, scale 0 to 100 (0 no effect, 100 complete control)

COC(=O)CNc1nc(C2CC2)nc(C(=O)OC)c1Br [Compound 10]
Plant response rating, Ducksalad [1]: 0 | Plant response rating, Sedge, Umbrella [2]: 0 | Plant response rating, Rice [3]: 0 | Plant response rating, Barnyardgrass [4]: 0 | Crabgrass plant response rating [5, 18]: 30 | Plant response rating, Crabgrass [5, 19]: 40 | Plant response rating, Crabgrass [5, 20]: 20 | Crabgrass plant response rating [5, 21]: 60 | Wheat plant response rating [6, 18]: 0 | Plant response rating, Wheat [6, 19]: 0 | Plant response rating, Wheat [6, 20]: 0 | Wheat plant response rating [6, 21]: 0 | Morningglory plant response rating [7, 18]: 80 | Plant response rating, Morningglory [7, 19]: 80 | Plant response rating, Morningglory [7, 20]: 80 | Morningglory plant response rating [7, 21]: 90 | Lambsquarters plant response rating [8, 18]: 80 | Plant response rating, Lambsquarters [8, 19]: 90 | Lambsquarters plant response rating [8, 21]: 90 | Corn plant response rating [9, 18]: 0 | Plant response rating, Corn [9, 19]: 0 | Plant response rating, Corn [9, 20]: 0 | Corn plant response rating [9, 21]: 0 | Surinam Grass plant response rating [10, 18]: 10 | Plant response rating, Surinam Grass [10, 19]: 10 | Plant response rating, Surinam Grass [10, 20]: 0 | Surinam Grass plant response rating [10, 21]: 0 | Cocklebur plant response rating [11, 18]: 60 | Plant response rating, Cocklebur [11, 19]: 70 | Plant response rating, Cocklebur [11, 20]: 80 | Cocklebur plant response rating [11, 21]: 90 | Pigweed plant response rating [12, 18]: 80 | Plant response rating, Pigweed [12, 19]: 90 | Plant response rating, Pigweed [12, 20]: 80 | Pigweed plant response rating [12, 21]: 90 | Foxtail, Giant plant response rating [13, 18]: 0 | Plant response rating, Foxtail, Giant [13, 19]: 10 | Plant response rating, Foxtail, Giant [13, 20]: 0 | Foxtail, Giant plant response rating [13, 21]: 20 | Barnyardgrass plant response rating [14, 18]: 0 | Plant response rating, Barnyardgrass [14, 19]: 10 | Plant response rating, Barnyardgrass [14, 20]: 20 | Barnyardgrass plant response rating [14, 21]: 50 | Velvetleaf plant response rating [15, 18]: 50 | Plant response rating, Velvetleaf [15, 19]: 80 | Plant response rating, Velvetleaf [15, 20]: 80 | Velvetleaf plant response rating [15, 21]: 90 | Blackgrass plant response rating [16]: 0 | Plant response rating, Blackgrass [16]: 0 | Oat, Wild plant response rating [17]: 0 | Plant response rating, Oat, Wild [17]: 10

CCOC(=O)c1nc(C2CC2)nc(N=CN(C)C)c1Br [Compound 40]
Plant response rating, Ducksalad [1]: 80 | Plant response rating, Sedge, Umbrella [2]: 70 | Plant response rating, Rice [3]: 60 | Plant response rating, Barnyardgrass [4]: 70 | Crabgrass plant response rating [5, 18]: 0 | Plant response rating, Crabgrass [5, 19]: 80 | Plant response rating, Crabgrass [5, 20]: 60 | Crabgrass plant response rating [5, 21]: 80 | Wheat plant response rating [6, 18]: 50 | Plant response rating, Wheat [6, 19]: 60 | Plant response rating, Wheat [6, 20]: 40 | Plant response rating, Wheat [6, 21]: 70 | Morningglory plant response rating [7, 18]: 0 | Plant response rating, Morningglory [7, 19]: 100 | Plant response rating, Morningglory [7, 20]: 90 | Morningglory plant response rating [7, 21]: 100 | Lambsquarters plant response rating [8, 18]: 0 | Plant response rating, Lambsquarters [8, 19]: 100 | Plant response rating, Lambsquarters [8, 20]: 100 | Lambsquarters plant response rating [8, 21]: 100 | Corn plant response rating [9, 18]: 0 | Plant response rating, Corn [9, 19]: 60 | Plant response rating, Corn [9, 20]: 0 | Corn plant response rating [9, 21]: 50 | Surinam Grass plant response rating [10, 18]: 0 | Plant response rating, Surinam Grass [10, 19]: 70 | Plant response rating, Surinam Grass [10, 20]: 50 | Surinam Grass plant response rating [10, 21]: 70 | Cocklebur plant response rating [11, 18]: 0 | Plant response rating, Cocklebur [11, 19]: 90 | Plant response rating, Cocklebur [11, 20]: 90 | Cocklebur plant response rating [11, 21]: 100 | Pigweed plant response rating [12, 18]: 0 | Plant response rating, Pigweed [12, 19]: 100 | Plant response rating, Pigweed [12, 20]: 90 | Pigweed plant response rating [12, 21]: 100 | Foxtail, Giant plant response rating [13, 18]: 0 | Plant response rating, Foxtail, Giant [13, 19]: 60 | Plant response rating, Foxtail, Giant [13, 20]: 20 | Foxtail, Giant plant response rating [13, 21]: 80 | Barnyardgrass plant response rating [14, 18]: 0 | Plant response rating, Barnyardgrass [14, 19]: 90 | Plant response rating, Barnyardgrass [14, 20]: 50 | Barnyardgrass plant response rating [14, 21]: 90 | Velvetleaf plant response rating [15, 18]: 0 | Plant response rating, Velvetleaf [15, 19]: 90 | Plant response rating, Velvetleaf [15, 20]: 90 | Velvetleaf plant response rating [15, 21]: 90 | Blackgrass plant response rating [16]: 50 | Plant response rating, Blackgrass [16]: 60 | Oat, Wild plant response rating [17]: 40 | Plant response rating, Oat, Wild [17]: 60

From patent US8802597B2, “Herbicidal pyrimidines” (E I du Pont de Nemours and Company, priority 2003, dated 2014)
